Laboratory results: patent US9593113B2, “Imide and acylurea derivatives as modulators of the glucocorticoid receptor” (BRISTOL-MYERS SQUIBB COMPANY, priority 2013, dated 2017)
Like-named read-outs stand apart in the source and are kept apart here.

Tests used:
[1] = test system: AP-1 induced transcriptional activity; assay: Cellular transrepressional assay (AP-1 luciferase reporter, PMA-activated A549 cell); assay type: cell-based; conditions: for EC50: read-out: AP-1 (EC50, nM) (measured in cellular transrepression assay)
Protocol: To measure the ability of test molecules to inhibit AP-1 induced transcriptional activity we utilized an A549 cell which was stably transfected with a plasmid containing 7×AP-1 DNA binding sites (pAP-1-Luc plasmid, Stratagene Co., La Jolla, Calif.) followed by the gene for luciferase. Cells were activated with 10 ng/ml of phorbol myristic acid (PMA) plus or minus test molecules for 7 hours. After 7 hours a luciferase reagent was added to measure luciferase enzymatic activity in the cell. After a 10 minute incubation of luciferase reagent with cells, luminescence was measured in a TOPCOUNT® luminescence counter. Repression of AP-1 activity was calculated as the percentage decrease in the signal induced by PMA alone. Test molecules were analyzed in the concentration range from 0.1 nM to 40 μM. EC50s were determined by using standard curve fitting methods such as Excel fit (Microsoft Co.). An EC50 is the test molecule concentration at which there is a 50% repression of the maximal inhibition of transcription, i.e., a 50% reduction of AP-1 activity.

[2] = molecular target: human full-length glucocorticoid receptor (Homo sapiens (Human), UniProt P04150); assay: Glucocorticoid Receptor Binding Assay (II), fluorescence polarization competitor kit
Protocol: In order to measure the binding of compounds on the glucocorticoid receptor a commercially available kit was used (Glucocorticoid receptor competitor assay kit, PanVera Co., Madison, Wis., P2816). Briefly, a cell lysate containing recombinantly expressed human full-length glucocorticoid receptor was mixed with a fluorescently labeled glucocorticoid (1 nM Fluormone GS1) in the presence or absence of test compound. After one hour at room temperature, the fluorescence polarization (FP) of the samples were measured.

[3] = A549 cell, 10 ng/ml PMA, 7 hours
[4] = read-out: GR (Ki, nM) (measured in GR binding Assay II)
[5] = Homo sapiens, A549 cell, 10 ng/ml PMA, 7 hours

Chain of human full-length glucocorticoid receptor (P04150 whole entry): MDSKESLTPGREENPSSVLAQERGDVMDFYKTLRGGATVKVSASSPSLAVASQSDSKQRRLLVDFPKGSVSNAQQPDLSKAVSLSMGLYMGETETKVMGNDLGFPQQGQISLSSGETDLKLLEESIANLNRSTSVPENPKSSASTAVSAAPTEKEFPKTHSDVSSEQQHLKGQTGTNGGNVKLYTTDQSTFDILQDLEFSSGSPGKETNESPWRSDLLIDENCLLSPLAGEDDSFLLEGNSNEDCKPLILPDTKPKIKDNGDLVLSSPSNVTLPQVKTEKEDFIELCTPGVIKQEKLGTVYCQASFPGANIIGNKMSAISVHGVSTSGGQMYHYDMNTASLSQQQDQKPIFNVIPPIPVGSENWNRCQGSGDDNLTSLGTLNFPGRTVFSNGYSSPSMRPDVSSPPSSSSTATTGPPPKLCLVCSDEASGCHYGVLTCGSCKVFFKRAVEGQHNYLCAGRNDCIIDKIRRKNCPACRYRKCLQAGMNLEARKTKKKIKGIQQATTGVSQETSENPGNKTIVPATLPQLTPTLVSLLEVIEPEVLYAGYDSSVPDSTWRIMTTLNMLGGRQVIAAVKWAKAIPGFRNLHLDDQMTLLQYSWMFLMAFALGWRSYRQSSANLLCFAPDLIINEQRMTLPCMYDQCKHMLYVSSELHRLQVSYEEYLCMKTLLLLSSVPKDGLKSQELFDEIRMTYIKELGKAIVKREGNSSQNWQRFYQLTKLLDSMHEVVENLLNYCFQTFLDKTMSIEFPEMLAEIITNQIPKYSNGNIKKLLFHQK

| Ki [2, 4] [nM] | EC50 [1, 5] [nM] | Ki [2] [nM] | SMILES | AP-1 Max % inhibition (measured in cellular transrepression assay) [1, 3] [%] | EC50 [1, 3] [nM] | AP-1 Max % inhibition (measured in cellular transrepression assay) [1] [%] | EC50 [1] [nM] |
| --- | --- | --- | --- | --- | --- | --- | --- |
| 1.72 | 20.1 | – | CC(C)(C(=O)NC(N)=O)[C@@H]1c2ccc(-c3ccncc3)nc2Oc2c(F)cccc21 [Example 73] | 55.78 | – | – | – |
| 32 | 5000 | – | CC(C)(C(=O)NC(N)=O)C1c2ccccc2Oc2ccccc21 [Example 75] | 10.32 | – | – | – |
| 119 | – | – | CC(C)(C(=O)NC(N)=O)[C@H]1c2ccccc2Oc2nc(-c3cc[n+]([O-])cc3)ccc21 [Example 76] | 23.09 | 327 | – | – |
| 1.11 | 5.89 | – | CC(C)(C(=O)NC(N)=O)[C@@H]1c2ccc(-c3ccc(C(=O)N4CCCCC4)cc3)nc2Oc2c(F)cccc21 [Example 83] | 86.42 | – | – | – |
| 1.2 | 0.8 | – | CC(C)(C(=O)NC(N)=O)[C@@H]1c2ccc(-c3ccc(C(=O)N4CC[C@@H](F)C4)cc3)nc2Oc2c(F)cccc21 [Example 85] | 76.00 | – | – | – |

Further lines, the compound ahead of its results:

| SMILES | Ki [2, 4] [nM] | EC50 [1, 5] [nM] | Ki [2] [nM] | AP-1 Max % inhibition (measured in cellular transrepression assay) [1, 3] [%] | EC50 [1, 3] [nM] | AP-1 Max % inhibition (measured in cellular transrepression assay) [1] [%] | EC50 [1] [nM] |
| --- | --- | --- | --- | --- | --- | --- | --- |
| CC(C)(C(=O)NC(N)=O)[C@@H]1c2ccc(-c3ccc(NC4CC4)nc3)nc2Oc2c(F)cccc21 [Example 62] | 1.15 | – | – | 64.75 | 8.24 | – | – |
| CC(C)(C(=O)NC(N)=O)[C@@H]1c2ccc(-c3ccc(C(=O)O)nc3)nc2Oc2c(F)cccc21 [Example 63] | 10.8 | – | – | 39.61 | 142 | – | – |
| CC(C)(C(=O)NC(N)=O)[C@@H]1c2ccc(-c3ccc(N4CCCCC4)nc3)nc2Oc2c(F)cccc21 [Example 64] | 1.7 | – | – | – | – | 44.43 | 72.5 |
| CC(C)Oc1ccc(-c2ccc3c(n2)Oc2ccccc2[C@@H]3C(C)(C)C(=O)NC(N)=O)cn1 [Example 65] | 0.5 | – | – | 54.73 | 4.89 | – | – |
| CC(=O)Nc1ccc(-c2ccc3c(n2)Oc2ccccc2[C@@H]3C(C)(C)C(=O)NC(N)=O)cn1 [Example 66] | 2.66 | – | – | 36.83 | 39.7 | – | – |
| Cc1nnn(-c2ccc(-c3ccc4c(n3)Oc3ccccc3[C@@H]4C(C)(C)C(=O)NC(N)=O)cc2)n1 [Example 67] | 1.51 | – | – | 53.28 | 4.98 | – | – |
| CC(C)Oc1ccc(-c2ccc3c(n2)Oc2c(F)cccc2[C@@H]3C(C)(C)C(=O)NC(N)=O)cn1 [Example 68] | – | 8.57 | 0.63 | 61.39 | – | – | – |
| CC(C)(O)c1ccc(-c2ccc3c(n2)Oc2ccccc2[C@@H]3C(C)(C)C(=O)NC(N)=O)cc1 [Example 70] | 1.19 | 8.94 | – | 79.50 | – | – | – |
| CN1CCN(c2ncc(-c3ccc4c(n3)Oc3c(F)cccc3[C@@H]4C(C)(C)C(=O)NC(N)=O)cn2)CC1 [Example 71] | 25.9 | 93.6 | – | 39.16 | – | – | – |
| CC(C)(C(=O)NC(N)=O)[C@H]1c2ccccc2Oc2nc(-c3ccncc3)ccc21 [Example 72] | 4.71 | 36 | – | 37.36 | – | – | – |
